Measurements taken from patent publication US9745267B2, “Compounds as modulators of RORC” (Boehringer Ingelheim International GmbH, priority 2013, dated 2017).

molecular target: T1, RORγt (hRORC LBD) (Homo sapiens, UniProt P51449); assay: RGA Assay: nuclear receptor transactivation assay, RORγt transactivation of a luciferase reporter; assay type: cell-based; details: transiently transfected HEK 293 cells, Gal4DBD hRORC LBD, 20-24 hours incubation
T1 construct: expressed in transfected cells; host or cells: HEK 293 (transient cotransfection with pGL4.3 luc2P/GAL4UAS/Hygro reporter)
T1 sequence (P51449 269-508 limits assumed): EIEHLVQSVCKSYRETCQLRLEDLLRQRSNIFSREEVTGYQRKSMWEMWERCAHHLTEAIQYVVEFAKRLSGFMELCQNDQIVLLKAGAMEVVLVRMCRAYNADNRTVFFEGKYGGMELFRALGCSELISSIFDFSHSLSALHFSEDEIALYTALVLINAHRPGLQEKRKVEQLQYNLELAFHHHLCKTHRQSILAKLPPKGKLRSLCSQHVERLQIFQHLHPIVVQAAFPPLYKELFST
Experimental: A nuclear receptor transactivation assay was performed to quantitate the ability of test compounds to inhibit RORγt transactivation of a luciferase reporter. A similar assay is described in: Khan et al., Bioorganic & Medicinal Chemistry Letters 23 (2013), 532-536. The system uses transiently transfected HEK 293 cells cotransfected with two plasmids (pGL4.3, luc2P/GAL4UAS/Hygro, and pBIND, Gal4DBD hRORC LBD1-3). The positive control is co-transiently transfected with both plasmids, and the negative control contains the pGL4.3 promoter sequence. Assays were assembled in 384 well plates where transiently transfected cells and test compound at varying concentrations were incubated for 20-24 hours. The next day, assays plates are taken out and equilibrated at RT for 20-30 minutes. Bright-Glo™ Luciferase Assay System is used to detect Luciferase production. After addition of Bright GLO detection reagent, the plates were incubated at RT for 20 minutes. The plates were read on an Envision plate reader to measure luminescence signal. The RLU signal is converted to POC relative to control and blank wells.
Compound Dilution Buffer:
Bright Glo Luciferase Assay System: Promega #E2620
Thaw lysis buffer provided in kit, add 100 mL lysis buffer to substrate powder.

**Q.** `CCS(=O)(=O)c1ccc(CNC(=O)N2CC3(CCC3)c3cc(-c4c(OC)ncnc4C4CC4)ccc32)cc1` [Example 128] was tested. Which IC50 did it give?
**A.** 0.21 µM

**Q.** How did the IC50 turn out when `CCS(=O)(=O)c1ccc(CNC(=O)N2CC3(CCC3)c3cc(-c4c(OC)ncnc4C4CC4)ccc32)nc1` [Example 129] was run?
**A.** 0.37 µM

**Q.** How did the IC50 turn out when `CCS(=O)(=O)c1ccc(CNC(=O)N2CC3(CCCC3)c3cc(-c4c(OC)nc(N(C)C)nc4C4CC4)ccc32)cc1` [Example 130] was run?
**A.** 0.31 µM
